In general, IC50 refers to the concentration needed to halve the response being measured.

Molecules are shown by their SMILES. Bounds are passed on as bounds.

Assay [1] has as its target FGFR1 (Homo sapiens (Human), UniProt P11362). Nature of the assay: FGFR1 kinase activity at the molecular level (ELISA, Poly(Glu,Tyr) 4:1 substrate). The conditions noted are these: kinase domain recombinant protein, 5 μM ATP. It is filed as biochemical. The protocol:
(§1) 100 μL/well of 2 mg/mL OPD developing solution (diluted with 0.1M citric acid-sodium citrate buffer containing 0.03% H2O2 (pH=5.4)), and reacted in dark for 1-10 minutes at 25° C.
On the technique in general: An ELISA detects its analyte on a solid surface through an enzyme-linked reagent.

Assay [2] concerns the target FGFR2 (Homo sapiens (Human), UniProt P21802). Nature of the assay: FGFR2 kinase activity at the molecular level (ELISA, Poly(Glu,Tyr) 4:1 substrate). It is filed as biochemical. The conditions noted are these: kinase domain recombinant protein, 5 μM ATP. As to the method: as §1

Sequence of FGFR2 (P21802 481-770): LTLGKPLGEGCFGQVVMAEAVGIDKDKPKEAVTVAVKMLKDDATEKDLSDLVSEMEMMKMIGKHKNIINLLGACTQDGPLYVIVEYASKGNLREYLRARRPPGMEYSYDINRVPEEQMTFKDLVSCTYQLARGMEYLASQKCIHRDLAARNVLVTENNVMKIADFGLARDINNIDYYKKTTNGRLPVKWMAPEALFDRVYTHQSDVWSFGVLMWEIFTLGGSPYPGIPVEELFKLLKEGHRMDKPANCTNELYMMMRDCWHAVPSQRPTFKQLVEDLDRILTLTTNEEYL
Sequence of FGFR1 (P11362 478-767): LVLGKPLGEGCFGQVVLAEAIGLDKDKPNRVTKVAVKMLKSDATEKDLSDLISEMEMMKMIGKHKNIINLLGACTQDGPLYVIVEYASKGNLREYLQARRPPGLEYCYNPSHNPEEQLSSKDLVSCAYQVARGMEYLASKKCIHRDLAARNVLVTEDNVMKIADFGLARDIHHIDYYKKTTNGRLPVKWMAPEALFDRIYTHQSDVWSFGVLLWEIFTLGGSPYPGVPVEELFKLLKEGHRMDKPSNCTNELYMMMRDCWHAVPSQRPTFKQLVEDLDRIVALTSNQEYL

In the case of `COc1cc(OC)c(Cl)c(-c2ccc3c(NC(=O)c4ccc(NCCN(C)C)cc4)n[nH]c3c2)c1Cl` [Example 20, N-(6-(2,6-dichloro-3,5-dimethoxyphenyl)-1H-indazole-3-yl)-4-((2-(dimethylamino)ethyl)amino)benzamide], the IC50 in assay [1] and in assay [2] was less than 100 nM throughout.

As to `COc1cc(OC)c(Cl)c(-c2ccc3c(NC(=O)c4ccc(N5C[C@@H](C)N[C@@H](C)C5)cn4)n[nH]c3c2)c1Cl` [Example 21, N-(6-(2,6-dichloro-3,5-dimethoxyphenyl)-1H-indazole-3-yl)-5-((3R,5S)-3,5-dimethyl-1-yl)pyridine amide], the IC50 in assay [1] and in assay [2] was less than 100 nM each time.

Turning to `COc1cc(OC)c(Cl)c(-c2ccc3c(NC(=O)c4ccc(N5CCNC(C)(C)C5)cc4)n[nH]c3c2)c1Cl` [Example 22, N-(6-(2,6-dichloro-3,5-dimethoxyphenyl)-1H-indazole-3-yl)-4-(3,3-dimethyl-1-yl)benzamide], the IC50 in assay [1] and in assay [2] was less than 100 nM throughout.

Turning to `COc1cc(OC)c(Cl)c(-c2ccc3c(NC(=O)c4cccc(N5CCN(C)CC5)c4)n[nH]c3c2)c1Cl` [Example 23, N-(6-(2,6-dichloro-3,5-dimethoxyphenyl)-1H-indazole-3-yl)-3-(4-methyl-1-yl)benzamide], the IC50 in assay [1] and in assay [2] was less than 100 nM throughout.

As for `COc1cc(OC)c(Cl)c(-c2ccc3c(NC(=O)c4ccc(N5CCN(C(C)C)CC5)cc4)n[nH]c3c2)c1Cl` [Example 24, N-(6-(2,6-dichloro-3,5-dimethoxyphenyl)-1H-indazole-3-yl)-4-(4-isopropyl-1-yl)benzamide], the IC50 in assay [1] and in assay [2] was less than 100 nM in each case.

Turning to `COc1cc(OC)c(Cl)c(-c2ccc3c(NC(=O)c4ccc(N5CCNCC5)cc4)n[nH]c3c2)c1Cl` [Example 25, N-(6-(2,6-dichloro-3,5-dimethoxyphenyl)-1H-indazole-3-yl)-4-(piperazine-1-yl)benzamide], the IC50 in assay [1] and in assay [2] was less than 100 nM in each case.

Turning to `COc1cc(OC)c(Cl)c(-c2ccc3c(NC(=O)c4ccc(NCCCN(C)C)cc4)n[nH]c3c2)c1Cl` [Example 26, N-(6-(2,6-dichloro-3,5-dimethoxyphenyl)-1H-indazole-3-yl)-4-((3(dimethylamino)propyl)amino)benzamide], the IC50 in assay [1] and in assay [2] was less than 100 nM each time.

Regarding `COc1cc(OC)c(Cl)c(-c2ccc3c(NC(=O)c4ccc(N5CCN(CCO)CC5)cc4)n[nH]c3c2)c1Cl` [Example 27, N-(6-(2,6-dichloro-3,5-dimethoxyphenyl)-1H-indazole-3-yl)-4-(4-(2-hydroxyethyl)piperazinyl)benzamide], the IC50 in assay [1] and in assay [2] was less than 100 nM throughout.

As to `COc1cc(OC)c(Cl)c(-c2ccc3c(NC(=O)c4ccc(NC(=O)CN(C)C)cc4)n[nH]c3c2)c1Cl` [Example 28, N-(6-(2,6-dichloro-3,5-dimethoxyphenyl)-1H-indazole-3-yl)-4-(2-(dimethylamino)acetylamino)benzamide], the IC50 in assay [1] and in assay [2] was less than 100 nM in each case.

With `COc1cc(OC)cc(-c2ccc3c(NC(=O)c4ccc(N5C[C@@H](C)N[C@@H](C)C5)cc4)n[nH]c3c2)c1` [Example 29, N-(6-(3,5-dimethoxyphenyl)-1H-indazole-3-yl)-4-((3R, 5S)-3,5-dimethylpiperazine-1-yl)benzamide], the IC50 in assay [1] and in assay [2] was less than 100 nM each time.

With `COc1cc(OC)c(Cl)c(-c2ccc3c(NC(=O)c4ccc(N5CCN(C(=O)C(C)(C)C)CC5)cc4)n[nH]c3c2)c1Cl` [Example 30, N-(6-(2,6-dichloro-3,5-dimethoxyphenyl)-1H-indazole-3-yl)-4-(4-pivaloylpiperazine-1-yl)benzamide], the IC50 in assay [1] and in assay [2] was less than 100 nM throughout.

As for `COc1cc(OC)c(Cl)c(-c2ccc3c(NC(=O)c4cnn(CCO)c4)n[nH]c3c2)c1Cl` [Example 31, N-(6-(2,6-dichloro-3,5-dimethoxyphenyl)-1H-indazole-3-yl)-1-(2-hydroxyethyl)-1H-pyrazol-4-formamide], the IC50 in assay [1] and in assay [2] was less than 100 nM in each case.

On to `COc1cc(OC)c(Cl)c(-c2ccc3c(NC(=O)c4ccc(CCC(=O)N(C)C)cc4)n[nH]c3c2)c1Cl` [Example 33, N-(6-(2,6-dichloro-3,5-dimethoxyphenyl)-1H-indazole-3-yl)-4-(3-(dimethylamino)-3-oxopropyl)benzamide], for which the IC50 in assay [1] and in assay [2] was less than 100 nM in each case.

Turning to `COc1cc(OC)c(Cl)c(-c2ccc3c(NC(=O)c4ccc(CN(C)C)cc4)n[nH]c3c2)c1Cl` [Example 34, N-(6-(2,6-dichloro-3,5-dimethoxyphenyl)-1H-indazole-3-yl)-4-((dimethylamino)methyl)benzamide], the IC50 in assay [1] and in assay [2] was less than 100 nM throughout.

For `COc1cc(OC)c(Cl)c(-c2ccc3c(NC(=O)c4ccc(N(C)C)cc4)n[nH]c3c2)c1Cl` [Example 35, N-(6-(2,6-dichloro-3,5-dimethoxyphenyl)-1H-indazole-3-yl)-4-(dimethylamino)benzamide], the IC50 in assay [1] and in assay [2] was less than 100 nM each time.

Regarding `COc1cc(OC)c(Cl)c(-c2ccc3c(NC(=O)c4ccc(N5CCN(C(C)=O)CC5)cc4)n[nH]c3c2)c1Cl` [Example 36, 4-(4-acetylpiperazine-1-yl)-N-(6-(2,6-dichloro-3,5-dimethoxyphenyl)-1H-indazole-3-yl)benzamide], the IC50 in assay [1] and in assay [2] was less than 100 nM throughout.

For `COc1cc(OC)c(Cl)c(-c2ccc3c(NC(=O)c4ccc(N5CCC(N(C)C)CC5)cc4)n[nH]c3c2)c1Cl` [Example 37, N-(6-(2,6-dichloro-3,5-dimethoxyphenyl)-1H-indazole-3-yl)-4-(4-(dimethylamino)piperidine-1-yl)benzamide], the IC50 in assay [1] and in assay [2] was less than 100 nM each time.

In the case of `COc1cc(OC)c(F)c(-c2ccc3c(NC(=O)c4ccc(N5CCN(C)CC5)cc4)n[nH]c3c2)c1F` [Example 45, N-(6-(2,6-difluoro-3,5-dimethoxyphenyl)-1H-indazole-3-yl)-4-(4-methylpiperazine-1-yl)benzamide], the IC50 in assay [1] and in assay [2] was less than 100 nM in each case.

For `COc1cc(OC)c(F)c(-c2ccc3c(NC(=O)c4ccc(N5CCNC(C)(C)C5)cc4)n[nH]c3c2)c1F` [Example 46, N-(6-(2,6-difluoro-3,5-dimethoxyphenyl)-1H-indazole-3-yl)-4-(3,3-dimethylpiperazine-1-yl)benzamide], the IC50 in assay [1] and in assay [2] was less than 100 nM throughout.

For `CCN1CCN(c2ccc(C(=O)Nc3n[nH]c4cc(-c5c(F)c(OC)cc(OC)c5F)ccc34)cc2)CC1` [Example 47, N-(6-(2,6-difluoro-3,5-dimethoxyphenyl)-1H-indazole-3-yl)-4-(4-ethylpiperazine-1-yl)benzamide], the IC50 in assay [1] and in assay [2] was less than 100 nM throughout.

On to `COc1cc(OC)c(F)c(-c2ccc3c(NC(=O)c4ccc(N5CCN(C)CC5)cc4)n[nH]c3n2)c1F` [Example 48, N-(6-(2,6-difluoro-3,5-dimethoxyphenyl)-1H-pyrazolo [3,4-b]pyridine-3-yl)-4-(4-methylpiperazine-1-yl)benzamide], for which the IC50 in assay [1] and in assay [2] was less than 100 nM throughout.

Source of the values: patent publication US10562900B2 (Shanghai Haihe Pharmaceutical Co., Ltd., priority 2014, dated 2020).
